The source of these data is US20090313718A1, “POLYNUCLEOTIDES ENCODING CARYOPHYLLENE SYNTHASE AND USES THEREOF” (priority 2006, published 2009).

“Also recorded” adds a separate entry of the source. Where two headings read alike, the source gives them in different places.

One data set deals with Heterorhabditis megidis. In words: Belowground six-arm olfactometer assay. It is filed as in vivo. Here is the method:
9. Bioassays • Attraction of the nematode Heterorhabditis megidis toward (E)-β-caryophyllene was tested with belowground six-arm olfactometer assays (Rasmann et al., 2005). The apparatus consisted of a central glass chamber with six evenly distributed side arms that connect it to six glass pots. The entire system was filled with moist sand (10% water). An aliquot of 0.2 μl of authentic (E)-β-caryophyllene (98% pure; Sigma-Aldrich) was injected into one of the glass pots and the five untreated pots were used as controls. About 2000 H. megidis were released in a drop of water in the centre of the central arena. […] On the next day, recovered nematodes were counted. • To test the above ground role of (E)-β-caryophyllene in attracting herbivore enemies, S. littoralis caterpillars and the solitary endoparasitoid Cotesia marginiventris were reared as described by Turlings et al. (2004). […] The experiment was repeated seven times. • The behavioral responses of parasitoids and entomopathogenic nematodes to (E)-β-caryophyllene were analyzed with a log-linear model corrected for the expected distribution within the olfactometer (Turlings et al. 2004). The model was fitted by maximum quasilikelihood estimation in the software package R (Version 2.4.0) and its adequacy was assessed through likelihood ratio statistics and examination of residuals. […]

A further data set has as its system Cotesia marginiventris. As to the kind of experiment: Four-arm olfactometer assay with parasitoid females. It is filed as in vivo. The conditions noted are these: odor vs pure air. Here is the method:
FIG. 9 provides evidence that the parasitic wasp Cotesia marginiventris is attracted by (E)-β-caryophyllene after previous oviposition experience. Responses of the parasitic wasp Cotesia marginiventris to (E)-β-caryophyllene: The attraction of parasitoid females to a pure standard of (E)-β-caryophyllene was tested in a four-arm olfactometer. Two groups of parasitoids were tested: naïve wasps and wasps with a previous oviposition experience on host larvae in the presence of (E)-β-caryophyllene. The parasitoids were tested in groups of six (n=14).
9. […] On the next day, recovered nematodes were counted. • To test the above ground role of (E)-β-caryophyllene in attracting herbivore enemies, S. littoralis caterpillars and the solitary endoparasitoid Cotesia marginiventris were reared as described by Turlings et al. (2004). […] The experiment was repeated seven times. • The behavioral responses of parasitoids and entomopathogenic nematodes to (E)-β-caryophyllene were analyzed with a log-linear model corrected for the expected distribution within the olfactometer (Turlings et al. 2004). The model was fitted by maximum quasilikelihood estimation in the software package R (Version 2.4.0) and its adequacy was assessed through likelihood ratio statistics and examination of residuals. […]

The test system of a further data set is pathogens. The conditions noted are these: cited from earlier work.
The subject of data set [1] is adult females of D. v. virgifera. The conditions noted are these: in vivo; cited from earlier work.
The target of data set [2] is T1, TPS23-Del (Zea mays, UniProt B2C4D0).
T1 sequence (B2C4D0 1-547): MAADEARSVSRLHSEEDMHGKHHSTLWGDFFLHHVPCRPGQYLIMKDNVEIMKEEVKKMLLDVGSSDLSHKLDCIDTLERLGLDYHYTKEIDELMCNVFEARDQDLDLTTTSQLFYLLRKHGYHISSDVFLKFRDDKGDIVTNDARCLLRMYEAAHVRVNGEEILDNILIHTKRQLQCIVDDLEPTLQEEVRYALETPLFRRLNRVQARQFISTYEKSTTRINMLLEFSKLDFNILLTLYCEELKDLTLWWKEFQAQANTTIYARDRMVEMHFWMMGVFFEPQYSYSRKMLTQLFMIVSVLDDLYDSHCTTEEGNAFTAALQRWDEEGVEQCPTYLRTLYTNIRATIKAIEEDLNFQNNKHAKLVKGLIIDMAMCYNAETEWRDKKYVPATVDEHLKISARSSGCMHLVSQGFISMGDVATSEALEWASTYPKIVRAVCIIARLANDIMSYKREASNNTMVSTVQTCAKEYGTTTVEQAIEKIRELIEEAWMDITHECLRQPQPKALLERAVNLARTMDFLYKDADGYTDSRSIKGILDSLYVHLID
In words: Kinetic and metal ion cofactor assay with purified TPS23 and tritium-labeled FPP.

For data set [3], the target named is T1, TPS23-Del. In words: Substrate specificity and product identification of recombinant TPS23 (SPME, GC-MS). It is filed as biochemical, maize (Zea mays L.). On the set-up: For expression with a N-terminal 8×His tag the ORF of tps23 was amplified; 8xHis (N); made in house; host or cells: E. coli BL21 (DE3), vector pHIS8-3. The conditions noted are these: recombinant His-tagged TPS23-Del from E. coli BL21 (DE3).

The conditions of data set [4]: stored at −80° C.
Substrate in data set [5]: CC(C)=CCC/C(C)=C/CC/C(C)=C/CO[P@@](=O)(O)OP(=O)(O)O
As to the kind of experiment: purified protein, by the assay type. The following applies: other: FPP as substrate, TPS23-Del heterologously expressed in E. coli.

[6] abbreviates: read-out: Km of divalent metal ion cofactor, TPS23-Del heterologously expressed in E. coli.

For `C=C1CC/C=C(\C)CC[C@@H]2[C@@H]1CC2(C)C` [(E)-β-caryophyllene], the “nematodes recovered from spiked arm compared to average of the five arms not spiked” value in the data set with Heterorhabditis megidis (0.2 μl injected into one pot, 24 h after release of about 2000 H. megidis) was “Approximately twice”. In addition, the attraction of nematodes entry in the data set with Heterorhabditis megidis (six-arm olfactometer filled with moist sand, spiked arm vs five control arms) is recorded as “significantly larger number; also recorded: attracts”. In addition, the “attraction of experienced wasps” value with Cotesia marginiventris (females with previous oviposition experience on host larvae in the presence of (E)-β-caryophyllene) is on record as “significant preference; also recorded: preferred air carrying (E)-β-caryophyllene to pure air”. In addition, in the data set with Cotesia marginiventris (females without oviposition experience), the “attraction of naïve wasps” value was “did not show this preference; also recorded: not attracted”. Also, the anti-microbial activity entry in the data set with pathogens is “has anti-microbial activity”. Moreover, the “attractiveness to adult females of D. v. virgifera” value in data set [1] is recorded as “reported attractiveness”.

As to `CC(C)=CCC/C(C)=C/CC/C(C)=C/CO[P@@](=O)(O)OP(=O)(O)O` [FPP, (E,E)-farnesyl diphosphate], at TPS23-Del [2] (read-out: Km value for FPP, purified enzyme, tritium-labeled FPP), the Km was found to be 2.4 ± 0.4 µM.

As to `CC(C)=CCC/C(C)=C/CC/C(C)=C/CC/C(C)=C/COP(=O)(O)OP(=O)(O)O` [GGPP, geranylgeranyl diphosphate], the acceptance as substrate entry at TPS23-Del [3] is “does not accept; also recorded: did not accept”.

For the molecule `CC(C)=CCC/C(C)=C/COP(=O)(O)OP(=O)(O)O` [GPP, geranyl diphosphate], the acceptance as substrate result at TPS23-Del [3] is reported as “does not accept; also recorded: did not accept”.

Consider `[Mg+2]` [Mg^2+], for which the “enzyme activity with divalent cation” value on TPS23-Del [2] (10 mM) is recorded as “substantial activities”. Moreover, the Km on TPS23-Del [2] (setting [6]) is 183 ± 34 µM.

`[Mn+2]` [Mn^2+]: the “enzyme activity with divalent cation” value on TPS23-Del [2] (0.25 mM) is given as “substantial activities”. The Km on TPS23-Del [2] (setting [6]) is 28 ± 6 µM.

`CN1CCCCC1CCN1c2ccccc2Sc2ccc([S+](C)[O-])cc21` (stereo not shown) [TPS23-Del]: in data set [4], the “time enzyme activity was stable” value was “at least 1 month”.

B1: TPS23-Del (Zea mays) (protein)
chain: MAADEARSVSRLHSEEDMHGKHHSTLWGDFFLHHVPCRPGQYLIMKDNVEIMKEEVKKMLLDVGSSDLSHKLDCIDTLERLGLDYHYTKEIDELMCNVFEARDQDLDLTTTSQLFYLLRKHGYHISSDVFLKFRDDKGDIVTNDARCLLRMYEAAHVRVNGEEILDNILIHTKRQLQCIVDDLEPTLQEEVRYALETPLFRRLNRVQARQFISTYEKSTTRINMLLEFSKLDFNILLTLYCEELKDLTLWWKEFQAQANTTIYARDRMVEMHFWMMGVFFEPQYSYSRKMLTQLFMIVSVLDDLYDSHCTTEEGNAFTAALQRWDEEGVEQCPTYLRTLYTNIRATIKAIEEDLNFQNNKHAKLVKGLIIDMAMCYNAETEWRDKKYVPATVDEHLKISARSSGCMHLVSQGFISMGDVATSEALEWASTYPKIVRAVCIIARLANDIMSYKREASNNTMVSTVQTCAKEYGTTTVEQAIEKIRELIEEAWMDITHECLRQPQPKALLERAVNLARTMDFLYKDADGYTDSRSIKGILDSLYVHLID
Consider B1, for which the Km in data set [5] (0.25 mM MnCl2) was found to be 1.1 ± 0.3 µM; in data set [5] (10 mM MgCl2), 3.7 ± 0.5 µM.
